Measurements from patent publication US10550110B2, “Tetrahydroquinoline sulfonamide derivatives as inverse agonists of retinoid-related orphan receptor gamma (ROR gamma (t))” (GALDERMA RESEARCH & DEVELOPMENT, priority 2014, dated 2020).

Target: T1, ROR gamma ligand-binding domain (LBD) (hRORg) (Homo sapiens, UniProt P51449)
T1 construct: expressed in transfected cells; host or cells: HG5LN (HeLa line with GAL4-responsive luciferase reporter)
T1 sequence (P51449 269-508 limits assumed): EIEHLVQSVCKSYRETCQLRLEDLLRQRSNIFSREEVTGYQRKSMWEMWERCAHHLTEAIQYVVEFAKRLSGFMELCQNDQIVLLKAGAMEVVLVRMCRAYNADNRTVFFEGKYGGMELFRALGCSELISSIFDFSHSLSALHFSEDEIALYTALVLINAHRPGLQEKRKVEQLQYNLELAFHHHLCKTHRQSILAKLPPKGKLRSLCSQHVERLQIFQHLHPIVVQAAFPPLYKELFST
Assay: GAL4-RORγ transactivation (luciferase reporter, HG5LN HeLa line)
Assay type: cell-based
Settings: HG5LN HeLa line with GAL4 DBD fused to ROR gamma LBD, 18 hours incubation
From the text: GAL4—RORγ Transactivation
The RORγ transactivation model was developed from the line HG5LN, which is a HeLa line that stably expresses a luciferase reporter gene controlled by a pentamer of the GAL4 recognition domain of yeast and of a β-globin promoter. The HG5LN line was stably transfected by the DNA-binding domain (DBD) of GAL4 fused to the ROR gamma ligand-binding domain (LBD). Molecules that inhibit the ROR gamma constitutive activity reduce the luciferase expression, thus leading to a reduction in the emitted luminescence.
The cells are seeded in 384-well plates (5000 cells in 45 μL/well of culture medium containing 10% fetal calf serum) and incubated for 4 hours at 37° C., 5% CO2. 5 μL of the test molecules (compounds described in the tables described above) are then added to each well and the plates are incubated for 18 hours at a temperature of 37° C. under 5% of CO2. 20 μL of luciferase substrate (Promega) are added to each well and the luminescence emitted is read by a microplate reader.
The luminescence units (“RLU”) are normalized by positive controls (“POS” containing a saturated concentration of N-(2,2,2-trifluoroethyl)-N-[4-[2,2,2-trifluoro-1-hydroxy-1-(trifluoromethyl)ethyl]phenyl])benzenesulfonamide and negative controls (“NEG” containing DMSO): % inhibition=((RLU-NEG)*100)/(POS-NEG). The IC50 values are calculated from a 4-parameter logistic model using the XLFit software (IDBS).

| Compound | IC50 |
| --- | --- |
| CCc1ccc(N(CC(C)C)S(=O)(=O)c2ccc3c(c2)C(O)CCN3CC2CCS(=O)(=O)CC2)cc1 (stereo not shown) [Compound 17, 1-(1,1-dioxohexahydro-1λ^6-thiopyran-4-ylmethyl)-4-hydroxy-1,2,3,4-tetrahydroquinoline-6-sulfonic acid (4-ethylphenyl)isobutylamide] | > 1 µM |
| CCc1ccc(N(CC(C)C)S(=O)(=O)c2ccc3c(c2)C(O)CCN3CC2COC2)cc1 (stereo not shown) [Compound 18, 4-hydroxy-1-oxetan-3-ylmethyl-1,2,3,4-tetrahydroquinoline-6-sulfonic acid (4-ethylphenyl)isobutylamide] | 0.1 to 1 µM |
| CCc1ccc(N(CC(C)C)S(=O)(=O)c2ccc3c(c2)C(O)CCN3Cc2ccncn2)cc1 (stereo not shown) [Compound 21, 4-hydroxy-1-pyrimidin-4-ylmethyl-1,2,3,4-tetrahydroquinoline-6-sulfonic acid (4-ethylphenyl)isobutylamide] | < 0.1 µM |
| CCc1ccc(N(CC(C)C)S(=O)(=O)c2ccc3c(c2)C(O)CCN3CC2CNC(=O)O2)cc1 (stereo not shown) [Compound 23, 4-hydroxy-1-(2-oxooxazolidin-5-ylmethyl)-1,2,3,4-tetrahydroquinoline-6-sulfonic acid (4-ethylphenyl)isobutylamide] | 0.1 to 1 µM |
| CCc1ccc(N(CC(C)C)S(=O)(=O)c2ccc3c(c2)C(O)CCN3CC2CCC(=O)NC2)cc1 (stereo not shown) [Compound 24, 4-hydroxy-1-(6-oxopiperidin-3-ylmethyl)-1,2,3,4-tetrahydroquinoline-6-sulfonic acid (4-ethylphenyl)isobutylamide] | 0.1 to 1 µM |
| CCc1ccc(N(CC(C)C)S(=O)(=O)c2ccc3c(c2)C(O)CCN3CC2CCNC(=O)C2)cc1 (stereo not shown) [Compound 25, 4-hydroxy-1-(2-oxopiperidin-4-ylmethyl)-1,2,3,4-tetrahydroquinoline-6-sulfonic acid (4-ethylphenyl)isobutylamide] | > 1 µM |
| CCc1ccc(N(CC(C)C)S(=O)(=O)c2ccc3c(c2)C(O)CCN3C2CCS(=O)(=O)C2)cc1 (stereo not shown) [Compound 28, 1-(1,1-dioxotetrahydro-1λ^6-thiophen-3-yl)-4-hydroxy-1,2,3,4-tetrahydroquinoline-6-sulfonic acid (4-ethylphenyl)isobutylamide] | 0.1 to 1 µM |
| CCc1ccc(N(CC(C)C)S(=O)(=O)c2ccc3c(c2)C(O)CCN3Cc2c(C)noc2C)cc1 (stereo not shown) [Compound 31, 1-(3,5-dimethylisoxazol-4-ylmethyl)-4-hydroxy-1,2,3,4-tetrahydroquinoline-6-sulfonic acid (4-ethylphenyl)isobutylamide] | 0.1 to 1 µM |

Other lines, results leading:

| IC50 | Compound |
| --- | --- |
| > 1 µM | CCc1ccc(N(CC(C)C)S(=O)(=O)c2ccc3c(c2)C(O)CCN3CC2(O)CCOCC2)cc1 (stereo not shown) [Compound 16, 4-hydroxy-1-(4-hydroxytetrahydropyran-4-ylmethyl)-1,2,3,4-tetrahydroquinoline-6-sulfonic acid (4-ethylphenyl)isobutylamide] |
| 0.1 to 1 µM | CCc1ccc(N(CC(C)C)S(=O)(=O)c2ccc3c(c2)C(O)CCN3CC2CCS(=O)(=O)C2)cc1 (stereo not shown) [Compound 22, 1-(1,1-dioxotetrahydro-1λ^6-thiophen-3-ylmethyl)-4-hydroxy-1,2,3,4-tetrahydroquinoline-6-sulfonic acid (4-ethylphenyl)isobutylamide] |
| 0.1 to 1 µM | CCc1ccc(N(CC(C)C)S(=O)(=O)c2ccc3c(c2)C(O)CCN3CC2CNC(=O)C2)cc1 (stereo not shown) [Compound 26, 4-hydroxy-1-(5-oxopyrrolidin-3-ylmethyl)-1,2,3,4-tetrahydroquinoline-6-sulfonic acid (4-ethylphenyl)isobutylamide] |
| 0.1 to 1 µM | CCc1ccc(N(CC(C)C)S(=O)(=O)c2ccc3c(c2)C(O)CCN3C2CCS(=O)(=O)CC2)cc1 (stereo not shown) [Compound 27, 1-(1,1-dioxohexahydro-1λ^6-thiopyran-4-yl)-4-hydroxy-1,2,3,4-tetrahydroquinoline-6-sulfonic acid (4-ethylphenyl)isobutylamide] |
| 0.1 to 1 µM | CCc1ccc(N(CC(C)C)S(=O)(=O)c2ccc3c(c2)C(O)CCN3Cc2cnoc2C)cc1 (stereo not shown) [Compound 30, 4-hydroxy-1-(5-methylisoxazol-4-ylmethyl)-1,2,3,4-tetrahydroquinoline-6-sulfonic acid (4-ethylphenyl)isobutylamide] |
